Reference: ChEMBL document CHEMBL5442219

Columns and labels:
Conditions in all cases: Compound concentration 10 µM
[1] = biological target: T1, D(4) dopamine receptor (Homo sapiens) (UniProt P21917)
T1 sequence (whole entry): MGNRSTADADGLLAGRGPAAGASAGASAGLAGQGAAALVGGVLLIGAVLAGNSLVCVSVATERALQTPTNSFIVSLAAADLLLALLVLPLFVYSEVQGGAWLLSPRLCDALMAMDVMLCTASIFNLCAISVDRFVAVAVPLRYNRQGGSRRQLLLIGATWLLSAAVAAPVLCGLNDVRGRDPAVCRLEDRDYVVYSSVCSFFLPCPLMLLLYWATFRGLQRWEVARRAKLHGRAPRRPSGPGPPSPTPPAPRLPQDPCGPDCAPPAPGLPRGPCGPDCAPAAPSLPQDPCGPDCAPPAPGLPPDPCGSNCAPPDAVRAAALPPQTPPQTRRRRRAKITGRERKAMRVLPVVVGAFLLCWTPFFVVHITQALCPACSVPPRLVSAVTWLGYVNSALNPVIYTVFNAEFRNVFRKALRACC
Description: PDSP Primary Binding target: DRD4 - Compounds are tested at 10 uM concentration, plate are incubated at room temperature in the dark for 90 minutes. Reaction are stopped by vacuum filtration onto 0.3% polyethyleneimine soaked filter mats using Filtermate harvester. Scintilation cocktail is then melted onto microwave-dried filters on a hot plate and the radio activity is counted in Microbia counter.

[2] = biological target: Sigma intracellular receptor 2 (Homo sapiens) (UniProt Q5BJF2)
Description: PDSP Primary Binding target: TMEM97 - Compounds are tested at 10 uM concentration, plate are incubated at room temperature in the dark for 90 minutes. Reaction are stopped by vacuum filtration onto 0.3% polyethyleneimine soaked filter mats using Filtermate harvester. Scintilation cocktail is then melted onto microwave-dried filters on a hot plate and the radio activity is counted in Microbia counter.

[3] = biological target: T2, Alpha-2A adrenergic receptor (Homo sapiens) (UniProt P08913)
T2 sequence (whole entry): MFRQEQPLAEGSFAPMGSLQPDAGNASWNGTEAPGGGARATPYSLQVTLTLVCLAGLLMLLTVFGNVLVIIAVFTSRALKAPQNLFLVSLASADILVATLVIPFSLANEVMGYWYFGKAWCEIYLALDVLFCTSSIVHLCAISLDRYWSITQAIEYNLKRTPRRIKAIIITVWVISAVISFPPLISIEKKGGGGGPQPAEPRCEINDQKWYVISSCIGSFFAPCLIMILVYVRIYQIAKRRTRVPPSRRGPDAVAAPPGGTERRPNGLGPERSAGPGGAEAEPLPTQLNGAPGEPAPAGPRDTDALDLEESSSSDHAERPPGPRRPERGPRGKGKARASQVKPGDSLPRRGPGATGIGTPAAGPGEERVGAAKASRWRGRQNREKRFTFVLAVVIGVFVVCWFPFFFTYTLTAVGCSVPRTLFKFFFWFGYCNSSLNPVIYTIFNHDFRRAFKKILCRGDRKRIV
Description: PDSP Primary Binding target: ADRA2A - Compounds are tested at 10 uM concentration, plate are incubated at room temperature in the dark for 90 minutes. Reaction are stopped by vacuum filtration onto 0.3% polyethyleneimine soaked filter mats using Filtermate harvester. Scintilation cocktail is then melted onto microwave-dried filters on a hot plate and the radio activity is counted in Microbia counter.

[4] = biological target: T3, Alpha-2C adrenergic receptor (Homo sapiens) (UniProt P18825)
T3 sequence (whole entry): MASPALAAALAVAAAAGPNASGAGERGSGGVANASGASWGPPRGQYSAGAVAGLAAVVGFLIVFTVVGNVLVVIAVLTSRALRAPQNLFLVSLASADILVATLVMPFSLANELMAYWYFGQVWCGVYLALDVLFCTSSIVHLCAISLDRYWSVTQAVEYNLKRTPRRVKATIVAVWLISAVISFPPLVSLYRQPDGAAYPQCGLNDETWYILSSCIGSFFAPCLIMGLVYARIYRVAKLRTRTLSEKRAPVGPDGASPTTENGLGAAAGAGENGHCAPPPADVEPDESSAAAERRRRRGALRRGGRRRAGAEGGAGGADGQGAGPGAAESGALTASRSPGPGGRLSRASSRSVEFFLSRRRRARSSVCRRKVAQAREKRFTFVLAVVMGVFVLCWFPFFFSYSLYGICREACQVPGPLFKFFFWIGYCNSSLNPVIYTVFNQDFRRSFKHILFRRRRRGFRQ
Description: PDSP Primary Binding target: ADRA2C - Compounds are tested at 10 uM concentration, plate are incubated at room temperature in the dark for 90 minutes. Reaction are stopped by vacuum filtration onto 0.3% polyethyleneimine soaked filter mats using Filtermate harvester. Scintilation cocktail is then melted onto microwave-dried filters on a hot plate and the radio activity is counted in Microbia counter.

[5] = biological target: Sodium-dependent serotonin transporter (Homo sapiens) (UniProt P31645)
Description: PDSP Primary Binding target: SLC6A4 - Compounds are tested at 10 uM concentration, plate are incubated at room temperature in the dark for 90 minutes. Reaction are stopped by vacuum filtration onto 0.3% polyethyleneimine soaked filter mats using Filtermate harvester. Scintilation cocktail is then melted onto microwave-dried filters on a hot plate and the radio activity is counted in Microbia counter.

[6] = biological target: Muscarinic acetylcholine receptor M3 (Homo sapiens) (UniProt P20309)
Description: PDSP Primary Binding target: CHRM3 - Compounds are tested at 10 uM concentration, plate are incubated at room temperature in the dark for 90 minutes. Reaction are stopped by vacuum filtration onto 0.3% polyethyleneimine soaked filter mats using Filtermate harvester. Scintilation cocktail is then melted onto microwave-dried filters on a hot plate and the radio activity is counted in Microbia counter.

[7] = biological target: 5-hydroxytryptamine receptor 1B (Homo sapiens) (UniProt P28222)
Description: PDSP Primary Binding target: HTR1B - Compounds are tested at 10 uM concentration, plate are incubated at room temperature in the dark for 90 minutes. Reaction are stopped by vacuum filtration onto 0.3% polyethyleneimine soaked filter mats using Filtermate harvester. Scintilation cocktail is then melted onto microwave-dried filters on a hot plate and the radio activity is counted in Microbia counter.

[8] = biological target: T4, Muscarinic acetylcholine receptor M2 (Homo sapiens) (UniProt P08172)
T4 sequence (whole entry): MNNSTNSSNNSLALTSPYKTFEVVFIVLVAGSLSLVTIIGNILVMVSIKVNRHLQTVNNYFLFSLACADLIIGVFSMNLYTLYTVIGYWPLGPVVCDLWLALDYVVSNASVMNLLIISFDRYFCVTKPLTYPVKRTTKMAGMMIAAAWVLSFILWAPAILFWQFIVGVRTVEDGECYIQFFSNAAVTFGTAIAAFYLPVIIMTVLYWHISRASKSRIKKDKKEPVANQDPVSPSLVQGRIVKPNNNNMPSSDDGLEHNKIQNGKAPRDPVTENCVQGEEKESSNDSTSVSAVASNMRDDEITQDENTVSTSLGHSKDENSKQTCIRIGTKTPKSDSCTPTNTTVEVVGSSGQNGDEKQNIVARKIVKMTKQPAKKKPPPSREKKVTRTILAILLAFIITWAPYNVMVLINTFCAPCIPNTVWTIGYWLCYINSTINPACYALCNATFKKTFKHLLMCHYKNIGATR
Description: PDSP Primary Binding target: CHRM2 - Compounds are tested at 10 uM concentration, plate are incubated at room temperature in the dark for 90 minutes. Reaction are stopped by vacuum filtration onto 0.3% polyethyleneimine soaked filter mats using Filtermate harvester. Scintilation cocktail is then melted onto microwave-dried filters on a hot plate and the radio activity is counted in Microbia counter.

[9] = biological target: 5-hydroxytryptamine receptor 5A (Homo sapiens) (UniProt P47898)
Description: PDSP Primary Binding target: HTR5A - Compounds are tested at 10 uM concentration, plate are incubated at room temperature in the dark for 90 minutes. Reaction are stopped by vacuum filtration onto 0.3% polyethyleneimine soaked filter mats using Filtermate harvester. Scintilation cocktail is then melted onto microwave-dried filters on a hot plate and the radio activity is counted in Microbia counter.

[10] = biological target: 5-hydroxytryptamine receptor 2B (Homo sapiens) (UniProt P41595)
Description: PDSP Primary Binding target: HTR2B - Compounds are tested at 10 uM concentration, plate are incubated at room temperature in the dark for 90 minutes. Reaction are stopped by vacuum filtration onto 0.3% polyethyleneimine soaked filter mats using Filtermate harvester. Scintilation cocktail is then melted onto microwave-dried filters on a hot plate and the radio activity is counted in Microbia counter.

[11] = biological target: T5, Muscarinic acetylcholine receptor M1 (Homo sapiens) (UniProt P11229)
T5 sequence (whole entry): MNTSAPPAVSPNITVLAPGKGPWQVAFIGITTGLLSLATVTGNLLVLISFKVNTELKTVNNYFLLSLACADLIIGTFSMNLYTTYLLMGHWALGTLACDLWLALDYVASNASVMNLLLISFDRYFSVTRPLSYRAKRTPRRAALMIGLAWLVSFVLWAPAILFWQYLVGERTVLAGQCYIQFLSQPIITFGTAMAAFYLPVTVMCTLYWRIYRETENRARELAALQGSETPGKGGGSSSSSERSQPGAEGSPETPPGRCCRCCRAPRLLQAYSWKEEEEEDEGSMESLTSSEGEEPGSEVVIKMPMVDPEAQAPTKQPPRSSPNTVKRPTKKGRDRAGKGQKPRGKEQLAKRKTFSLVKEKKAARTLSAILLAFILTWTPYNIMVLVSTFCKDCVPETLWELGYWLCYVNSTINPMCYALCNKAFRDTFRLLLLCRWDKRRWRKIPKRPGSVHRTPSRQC
Description: PDSP Primary Binding target: CHRM1 - Compounds are tested at 10 uM concentration, plate are incubated at room temperature in the dark for 90 minutes. Reaction are stopped by vacuum filtration onto 0.3% polyethyleneimine soaked filter mats using Filtermate harvester. Scintilation cocktail is then melted onto microwave-dried filters on a hot plate and the radio activity is counted in Microbia counter.

[12] = biological target: 5-hydroxytryptamine receptor 1E (Homo sapiens) (UniProt P28566)
Description: PDSP Primary Binding target: HTR1E - Compounds are tested at 10 uM concentration, plate are incubated at room temperature in the dark for 90 minutes. Reaction are stopped by vacuum filtration onto 0.3% polyethyleneimine soaked filter mats using Filtermate harvester. Scintilation cocktail is then melted onto microwave-dried filters on a hot plate and the radio activity is counted in Microbia counter.

[13] = biological target: Beta-2 adrenergic receptor (Homo sapiens) (UniProt P07550)
Chain of Beta-2 adrenergic receptor (Homo sapiens) (P07550 whole entry, looked up): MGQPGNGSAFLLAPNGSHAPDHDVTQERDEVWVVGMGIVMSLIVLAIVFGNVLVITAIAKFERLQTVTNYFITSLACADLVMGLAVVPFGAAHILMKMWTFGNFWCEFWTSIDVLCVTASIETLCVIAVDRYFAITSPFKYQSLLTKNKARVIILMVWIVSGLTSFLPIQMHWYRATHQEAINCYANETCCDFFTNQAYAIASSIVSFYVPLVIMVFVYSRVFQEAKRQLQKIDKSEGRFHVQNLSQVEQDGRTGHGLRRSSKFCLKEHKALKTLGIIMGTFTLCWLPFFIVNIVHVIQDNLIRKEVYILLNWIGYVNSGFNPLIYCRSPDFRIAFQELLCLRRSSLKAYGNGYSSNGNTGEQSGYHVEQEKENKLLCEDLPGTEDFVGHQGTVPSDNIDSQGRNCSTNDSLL
Description: PDSP Primary Binding target: ADRB2 - Compounds are tested at 10 uM concentration, plate are incubated at room temperature in the dark for 90 minutes. Reaction are stopped by vacuum filtration onto 0.3% polyethyleneimine soaked filter mats using Filtermate harvester. Scintilation cocktail is then melted onto microwave-dried filters on a hot plate and the radio activity is counted in Microbia counter.

Chain of Muscarinic acetylcholine receptor M3 (Homo sapiens) (P20309 whole entry, looked up): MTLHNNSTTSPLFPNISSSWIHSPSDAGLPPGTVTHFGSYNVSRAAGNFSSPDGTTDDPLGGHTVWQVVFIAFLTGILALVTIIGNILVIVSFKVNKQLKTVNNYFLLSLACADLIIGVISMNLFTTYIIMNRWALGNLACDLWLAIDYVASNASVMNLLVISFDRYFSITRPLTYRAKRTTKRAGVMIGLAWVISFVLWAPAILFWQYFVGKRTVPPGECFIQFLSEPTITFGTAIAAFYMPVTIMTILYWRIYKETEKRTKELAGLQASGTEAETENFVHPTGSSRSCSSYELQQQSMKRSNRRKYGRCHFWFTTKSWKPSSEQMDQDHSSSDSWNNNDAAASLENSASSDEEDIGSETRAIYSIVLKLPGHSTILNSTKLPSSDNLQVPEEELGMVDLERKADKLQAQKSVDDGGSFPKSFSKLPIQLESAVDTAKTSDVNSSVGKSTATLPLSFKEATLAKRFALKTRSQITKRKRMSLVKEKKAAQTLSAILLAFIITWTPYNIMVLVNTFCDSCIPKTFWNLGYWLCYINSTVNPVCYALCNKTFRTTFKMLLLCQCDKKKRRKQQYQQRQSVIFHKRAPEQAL
Chain of 5-hydroxytryptamine receptor 2B (Homo sapiens) (P41595 whole entry): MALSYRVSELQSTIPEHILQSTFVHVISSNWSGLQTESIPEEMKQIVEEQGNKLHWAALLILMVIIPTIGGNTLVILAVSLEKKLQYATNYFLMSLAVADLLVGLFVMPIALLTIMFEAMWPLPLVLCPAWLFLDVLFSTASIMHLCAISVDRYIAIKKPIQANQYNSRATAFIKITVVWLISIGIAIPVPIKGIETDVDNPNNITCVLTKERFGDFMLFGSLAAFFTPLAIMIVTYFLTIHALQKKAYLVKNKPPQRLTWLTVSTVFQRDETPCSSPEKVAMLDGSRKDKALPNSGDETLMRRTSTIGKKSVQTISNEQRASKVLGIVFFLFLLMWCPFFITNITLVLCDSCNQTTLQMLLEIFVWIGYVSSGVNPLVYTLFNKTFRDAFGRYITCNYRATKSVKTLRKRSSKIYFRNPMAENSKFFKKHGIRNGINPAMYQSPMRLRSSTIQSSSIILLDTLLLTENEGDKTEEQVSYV
Chain of Sigma intracellular receptor 2 (Homo sapiens) (Q5BJF2 whole entry): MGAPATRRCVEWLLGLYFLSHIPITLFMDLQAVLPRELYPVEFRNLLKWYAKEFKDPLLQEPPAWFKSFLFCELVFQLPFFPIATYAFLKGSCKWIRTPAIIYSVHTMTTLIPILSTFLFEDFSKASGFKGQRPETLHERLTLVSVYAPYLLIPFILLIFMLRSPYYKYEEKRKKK
Chain of 5-hydroxytryptamine receptor 1B (Homo sapiens) (P28222 whole entry): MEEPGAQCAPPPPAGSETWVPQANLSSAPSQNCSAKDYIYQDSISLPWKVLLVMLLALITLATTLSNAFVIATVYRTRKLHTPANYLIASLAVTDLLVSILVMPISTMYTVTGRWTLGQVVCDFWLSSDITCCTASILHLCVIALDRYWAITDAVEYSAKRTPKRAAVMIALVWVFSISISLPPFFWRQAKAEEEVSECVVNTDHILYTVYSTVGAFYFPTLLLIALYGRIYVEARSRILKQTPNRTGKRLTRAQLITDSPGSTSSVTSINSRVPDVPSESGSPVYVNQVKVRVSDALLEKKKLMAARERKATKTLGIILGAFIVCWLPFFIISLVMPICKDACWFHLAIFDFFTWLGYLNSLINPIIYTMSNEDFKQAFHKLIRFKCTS
Chain of 5-hydroxytryptamine receptor 1E (Homo sapiens) (P28566 whole entry): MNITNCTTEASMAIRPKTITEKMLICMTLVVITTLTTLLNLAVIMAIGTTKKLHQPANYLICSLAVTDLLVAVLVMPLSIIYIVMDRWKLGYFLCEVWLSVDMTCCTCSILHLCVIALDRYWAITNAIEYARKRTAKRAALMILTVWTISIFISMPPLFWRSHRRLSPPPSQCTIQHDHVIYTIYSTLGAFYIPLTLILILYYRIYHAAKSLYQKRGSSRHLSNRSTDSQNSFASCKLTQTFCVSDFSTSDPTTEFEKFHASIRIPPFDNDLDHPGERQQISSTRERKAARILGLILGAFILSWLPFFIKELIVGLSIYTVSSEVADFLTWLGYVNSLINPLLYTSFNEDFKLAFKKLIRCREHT
Chain of Sodium-dependent serotonin transporter (Homo sapiens) (P31645 whole entry, looked up): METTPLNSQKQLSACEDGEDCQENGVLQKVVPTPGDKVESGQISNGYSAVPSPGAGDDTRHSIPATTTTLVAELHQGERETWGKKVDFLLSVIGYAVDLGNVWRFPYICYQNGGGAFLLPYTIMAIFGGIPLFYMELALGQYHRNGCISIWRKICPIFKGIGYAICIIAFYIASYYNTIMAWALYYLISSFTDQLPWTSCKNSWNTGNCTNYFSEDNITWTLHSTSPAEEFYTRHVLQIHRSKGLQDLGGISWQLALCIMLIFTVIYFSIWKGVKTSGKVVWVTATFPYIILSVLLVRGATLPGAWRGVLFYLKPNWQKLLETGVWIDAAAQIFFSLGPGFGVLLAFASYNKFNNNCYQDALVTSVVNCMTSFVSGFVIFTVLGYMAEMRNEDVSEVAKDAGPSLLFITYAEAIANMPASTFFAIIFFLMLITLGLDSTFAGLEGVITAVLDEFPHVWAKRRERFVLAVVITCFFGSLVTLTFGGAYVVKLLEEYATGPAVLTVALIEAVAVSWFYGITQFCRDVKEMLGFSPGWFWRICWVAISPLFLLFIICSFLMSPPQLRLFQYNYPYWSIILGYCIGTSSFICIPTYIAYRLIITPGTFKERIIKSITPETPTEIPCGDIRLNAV
Chain of 5-hydroxytryptamine receptor 5A (Homo sapiens) (P47898 whole entry): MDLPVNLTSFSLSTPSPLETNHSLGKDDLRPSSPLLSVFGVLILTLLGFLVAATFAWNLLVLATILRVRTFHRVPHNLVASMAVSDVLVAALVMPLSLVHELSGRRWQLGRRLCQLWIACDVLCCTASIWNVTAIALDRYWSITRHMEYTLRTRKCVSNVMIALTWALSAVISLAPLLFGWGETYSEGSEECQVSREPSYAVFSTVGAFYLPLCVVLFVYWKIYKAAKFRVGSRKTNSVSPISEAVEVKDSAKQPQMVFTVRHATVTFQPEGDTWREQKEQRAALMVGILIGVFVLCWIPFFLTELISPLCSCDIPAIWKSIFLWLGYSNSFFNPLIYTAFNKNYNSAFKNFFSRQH

| Structure (SMILES) | inhibition [1] | inhibition [2] | inhibition [3] | inhibition [4] | inhibition [5] | inhibition [6] | inhibition [7] | inhibition [8] | inhibition [9] | inhibition [10] | inhibition [11] | inhibition [12] | inhibition [13] |
| --- | --- | --- | --- | --- | --- | --- | --- | --- | --- | --- | --- | --- | --- |
| CN1CCCC(n2nc(Cc3ccc(Cl)cc3)c3ccccc3c2=O)CC1 (stereo not given) | 85.5% | 97% | 62.3% | 64.5% | 19.8% | 57.3% | 66.5% | 36.1% | 80.8% | 89.5% | 82.9% | 57.6% | -8.69% |
| CN1CCC(C(=O)c2cccc(NC(=O)c3c(F)cc(F)cc3F)n2)CC1 | 14% | 91% | 19.9% | 6.36% | 10.4% | 43.5% | 43.4% | -1.5% | 27.2% | 60.6% | 43.1% | 102% | -3.08% |
| Cc1cc(NC(=O)NCCN2CCC(O)(Cc3ccccc3)CC2)c2ccccc2n1 | 21.1% | 86% | 82.4% | 37.3% | 66.3% | 24.4% | 11.5% | 16.1% | 5.79% | 62.2% | 13.7% | 5.03% | 28.1% |
| CN(C)C(=O)N[C@H]1CC[C@H](CCN2CCN(c3cccc(Cl)c3Cl)CC2)CC1 | 103% | 88.3% | 95% | 98% | 55% | 27.8% | 93.7% | 29.1% | 69.8% | 99% | 11.8% | 48% | 31.6% |
| O=c1ccc2ccc(OCCCCN3CCN(c4cccc5sccc45)CC3)cc2[nH]1 | 101% | 95.6% | 104% | 104% | 98.2% | 21.4% | 99% | -3.44% | 93.1% | 96% | 30.3% | 92.3% | 78.8% |
